Literature values in patent publication US6465436B2, “Method for treating alcohol intoxication and alcohol abuse” (McLean Hospital, priority 2000, dated 2002).

Legend:
[1] = for alcohol consumption suppressing activity of herbal medicines derived from Pueraria lobata (fractionation studies): U.S. Pat. No. 5,783,189
human ALDH-1 = molecular target: T1, human ALDH-1 (Homo sapiens, UniProt P05091)
T1 sequence (P05091 18-517): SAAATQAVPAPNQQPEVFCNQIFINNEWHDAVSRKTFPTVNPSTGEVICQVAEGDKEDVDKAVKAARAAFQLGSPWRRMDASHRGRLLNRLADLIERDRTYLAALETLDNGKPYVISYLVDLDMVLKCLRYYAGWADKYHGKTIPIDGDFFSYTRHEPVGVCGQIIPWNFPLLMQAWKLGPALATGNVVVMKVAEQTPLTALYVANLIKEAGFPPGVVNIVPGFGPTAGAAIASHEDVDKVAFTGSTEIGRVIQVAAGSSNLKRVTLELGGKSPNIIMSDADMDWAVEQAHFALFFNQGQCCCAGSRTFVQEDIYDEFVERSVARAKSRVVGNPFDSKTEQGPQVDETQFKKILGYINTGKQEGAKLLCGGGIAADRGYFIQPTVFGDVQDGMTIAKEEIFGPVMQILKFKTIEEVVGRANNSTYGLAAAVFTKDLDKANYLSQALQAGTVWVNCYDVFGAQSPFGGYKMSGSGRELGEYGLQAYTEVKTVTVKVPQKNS

[2] = in vivo

Structure (SMILES)	alcohol consumption suppressing activity of herbal medicines derived from Pueraria lobata (fractionation studies) [1]	human ALDH-1 inhibition (human ALDH-1)	alcohol intake (Syrian Golden hamsters)	blood alcohol levels [2]	sleep time induced by alcohol [2]	activity in suppressing alcohol intake relative to daidzin ([1]; in vivo)	ALDH inhibition (ALDH)
COc1cc(-c2coc3c([C@@H]4O[C@H](CO)[C@@H](O)[C@H](O)[C@H]4O)c(O)ccc3c2=O)ccc1O [3′-methoxypuerarin]	primarily responsible for the alcohol consumption suppressing activity						
O=c1c(-c2ccc(O)cc2)coc2cc(O)ccc12 [daidzein]	primarily responsible for the alcohol consumption suppressing activity	potent human ALDH-1 inhibitors	suppressed alcohol intake	decreases blood alcohol levels	shortens sleep time		
O=c1c(-c2ccc(O)cc2)coc2cc(O[C@@H]3O[C@H](CO)[C@@H](O)[C@H](O)[C@H]3O)ccc12 [daidzin]	primarily responsible for the alcohol consumption suppressing activity	potent human ALDH-1 inhibitors	suppressed alcohol intake				
O=c1c(-c2ccc(O)cc2)coc2c([C@@H]3O[C@H](CO[C@@H]4OC[C@](O)(CO)[C@H]4O)[C@@H](O)[C@H](O)[C@H]3O)c(O)ccc12 [mirificin]	primarily responsible for the alcohol consumption suppressing activity						
O=c1c(-c2ccc(O)cc2)coc2c([C@@H]3O[C@H](CO)[C@@H](O)[C@H](O)[C@H]3O)c(O)ccc12 [puerarin]	primarily responsible for the alcohol consumption suppressing activity					slightly less active than daidzin	not an ALDH inhibitor
